Test results reported in patent US20250326749A1, “COMPOUNDS, COMPOSITIONS, AND METHODS OF USING THEREOF” (Sionna Therapeutics Inc., priority 2022, published 2025).

Target: T1, ΔF508-CFTR (Homo sapiens, UniProt P13569, DEL508-508)
T1 construct: expressed in transfected cells; host or cells: CFSMEo- (human CF submucosal gland epithelial cells, ΔF508/Q2X), transiently transfected by nucleofection
Experiment: ΔF508-CFTR-HRP trafficking assay (cell surface expression of ΔF508-CFTR)
Type: cell-based
Details: CFSMEo- cells transiently transfected with ΔF508-CFTR-HRP; test agent 3 μM, 48 h; HRP chemiluminescence
How it was run: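 Surface-expressed ΔF508-CFTR measured via extracellular HRP tag: cell-impermeable chemiluminescent substrate, 5 min, signal normalized to 0.3% DMSO vehicle.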

T1 sequence (P13569 with tags, fused parts or gaps DEL508-508): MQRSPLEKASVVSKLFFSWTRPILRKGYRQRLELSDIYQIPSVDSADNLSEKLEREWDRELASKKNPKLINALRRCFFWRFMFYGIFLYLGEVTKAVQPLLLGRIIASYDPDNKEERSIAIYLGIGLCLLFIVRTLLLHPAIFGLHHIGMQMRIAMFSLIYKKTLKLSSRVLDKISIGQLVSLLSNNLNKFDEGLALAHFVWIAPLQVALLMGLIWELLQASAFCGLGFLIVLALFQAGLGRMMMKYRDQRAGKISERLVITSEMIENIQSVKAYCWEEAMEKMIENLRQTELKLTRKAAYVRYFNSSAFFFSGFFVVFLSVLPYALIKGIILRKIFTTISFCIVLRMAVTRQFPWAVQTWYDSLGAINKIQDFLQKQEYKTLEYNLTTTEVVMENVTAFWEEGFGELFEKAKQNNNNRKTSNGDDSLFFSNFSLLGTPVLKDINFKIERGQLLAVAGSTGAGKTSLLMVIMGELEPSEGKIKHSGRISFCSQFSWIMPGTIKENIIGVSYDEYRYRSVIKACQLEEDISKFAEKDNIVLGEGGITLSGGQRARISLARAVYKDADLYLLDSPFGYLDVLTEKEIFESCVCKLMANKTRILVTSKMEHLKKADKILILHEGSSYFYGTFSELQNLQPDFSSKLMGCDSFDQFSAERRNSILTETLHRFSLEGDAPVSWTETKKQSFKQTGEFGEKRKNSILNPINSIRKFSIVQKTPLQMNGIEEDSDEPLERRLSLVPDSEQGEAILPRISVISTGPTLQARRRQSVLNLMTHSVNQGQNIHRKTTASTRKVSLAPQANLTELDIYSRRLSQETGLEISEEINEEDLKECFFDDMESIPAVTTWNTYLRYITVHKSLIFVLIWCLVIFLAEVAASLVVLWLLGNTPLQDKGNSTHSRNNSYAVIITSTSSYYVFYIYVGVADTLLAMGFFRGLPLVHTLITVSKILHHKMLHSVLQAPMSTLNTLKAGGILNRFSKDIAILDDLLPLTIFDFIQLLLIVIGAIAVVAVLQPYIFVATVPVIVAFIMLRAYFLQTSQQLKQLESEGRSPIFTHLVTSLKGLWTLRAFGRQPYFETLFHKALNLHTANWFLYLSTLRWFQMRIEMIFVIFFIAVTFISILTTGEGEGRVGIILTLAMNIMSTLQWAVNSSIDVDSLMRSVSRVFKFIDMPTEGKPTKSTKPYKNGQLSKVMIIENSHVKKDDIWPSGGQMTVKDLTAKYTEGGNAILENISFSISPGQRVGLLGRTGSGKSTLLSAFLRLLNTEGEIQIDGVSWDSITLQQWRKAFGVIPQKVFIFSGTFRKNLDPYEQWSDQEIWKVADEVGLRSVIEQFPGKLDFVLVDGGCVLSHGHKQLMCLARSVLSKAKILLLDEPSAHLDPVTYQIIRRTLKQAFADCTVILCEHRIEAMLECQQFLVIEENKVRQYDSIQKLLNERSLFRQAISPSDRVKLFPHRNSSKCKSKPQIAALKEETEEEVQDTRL

Row | SMILES | RLUs: ΔF508-CFTR-HRP trafficking data normalized to the vehicle treated control (0.3% DMSO)
1 | C[C@H](Oc1cncc(-n2nc(C(F)(F)F)c3c2[C@H](OC24CCC(C(=O)O)(CC2)CC4)CCC3)c1)c1ccc2c(c1)OC(F)(F)O2 (single isomer, unassigned) [Example 58] | B (RLU 3.5 μM-5.0 μM)
2 | C[C@H](Oc1cc(-n2nc(C(F)(F)F)c3c2[C@H](OC24CCC(C(=O)O)(CC2)CC4)CCC3)cnc1F)c1ccc2c(c1)OC(F)(F)O2 (single isomer, unassigned) [Example 60] | C (RLU 0.0 μM-3.5 μM)
3 | C[C@H](Oc1cccc(-n2nc(C(F)(F)F)c3c2[C@@H](Oc2ccc(C(=O)O)cc2)CCC3)c1)c1ccc2c(c1)OC(F)(F)O2 (single isomer, unassigned) [Example 25] | B (RLU 3.5 μM-5.0 μM)
4 | C[C@H](Oc1cc(-n2nc(C(F)(F)F)c3c2C(O[C@H]2CC[C@H](C(=O)O)CC2)CCC3)ccn1)c1cc2c(cn1)OC(F)(F)O2 (single isomer, unassigned) [Example 48] | C (RLU 0.0 μM-3.5 μM)
5 | C[C@@H](Oc1cccc(-n2nc(C(F)(F)F)c3c2C(OC24CC(C(=O)O)(C2)C4)CCC3)c1)c1ccc2c(c1)OC(F)(F)O2 (stereo partly drawn) [Example 41, 3-[[1-[3-[(1R)-1-(2,2-difluoro-1,3-benzodioxol-5-yl)ethoxy]phenyl]-3-(trifluoromethyl)-4,5,6,7-tetrahydroindazol-7-yl]oxy]bicyclo[1.1.1]pentane-1-carboxylic acid] | A (RLU 5.0 μM-10 μM)
6 | C[C@H](Oc1cc(-n2nc(C(F)(F)F)c3c2[C@@H](Oc2ccc(-c4nc(=O)o[nH]4)cc2)CCC3)ccc1F)c1ccc2c(c1)OC(F)(F)O2 (single isomer, unassigned) [Example 111] | C (RLU 0.0 μM-3.5 μM)
7 | C[C@H](Oc1cc(-n2nc(C(F)(F)F)c3c2C(Oc2ccc(C(=O)O)cc2)CCC3)ccn1)c1ccc2c(c1)OC(F)(F)O2 (stereo partly drawn) [Example 22, 4-[[1-[2-[(1S)-1-(2,2-difluoro-1,3-benzodioxol-5-yl)ethoxy]-4-pyridyl]-3-(trifluoromethyl)-4,5,6,7-tetrahydroindazol-7-yl]oxy]benzoic acid] | B (RLU 3.5 μM-5.0 μM)
8 | C[C@H](Oc1cc(-n2nc(C(F)(F)F)c3c2[C@H](OC24CC(C(=O)O)(C2)C4)CCC3)cnc1F)c1cc2c(cc1F)OC(F)(F)O2 (single isomer, unassigned) [75 (P2)] | C (RLU 0.0 μM-3.5 μM)
9 | C[C@H](Oc1cc(-n2nc(C(F)(F)F)c3c2[C@@H](OC24CC(c5nc(=O)o[nH]5)(C2)C4)CCC3)ccc1F)c1ccc2c(c1)OC(F)(F)O2 (single isomer, unassigned) [85 (P1)] | C (RLU 0.0 μM-3.5 μM)
10 | C[C@H](Oc1cc(-n2nc(C(F)(F)F)c3c2[C@@H](NC(=O)c2ccc(C(=O)O)cc2)CCC3)ccn1)c1ccc2c(c1)OC(F)(F)O2 (single isomer, unassigned) [Example 114] | C (RLU 0.0 μM-3.5 μM)
11 | C[C@@H](Oc1cc(-n2nc(C(F)(F)F)c3c2C(O[C@H]2CC[C@H](C(=O)O)CC2)CCC3)ccn1)c1ccc2c(c1)OC(F)(F)O2 (single isomer, unassigned) [Example 43] | A (RLU 5.0 μM-10 μM)
12 | CC[C@H](Nc1cc(-n2nc(C(F)(F)F)c3c2[C@@H](Oc2ccc(C(=O)O)cc2)CCC3)ccn1)c1ccc2c(c1)OC(F)(F)O2 (single isomer, unassigned) [Example 88] | C (RLU 0.0 μM-3.5 μM)
13 | C[C@H](Nc1cccc(-n2nc(C(F)(F)F)c3c2[C@H](OC24CC(C(=O)O)(C2)C4)CCC3)c1)c1cc2c(cc1F)OC(F)(F)O2 (single isomer, unassigned) [97 (P2)] | C (RLU 0.0 μM-3.5 μM)
14 | C[C@H](Oc1cc(-n2nc(C(F)(F)F)c3c2[C@@H](Oc2ccc(-c4nc(=O)o[nH]4)cc2)CCC3)ccn1)c1ccc2c(c1)OC(F)(F)O2 (single isomer, unassigned) [Example 112] | A (RLU 5.0 μM-10 μM)
15 | C[C@H](Nc1cc(-n2nc(C#N)c3c2[C@@H](OC24CC(C(=O)O)(C2)C4)CCC3)ccc1F)c1ccc2c(c1)OC(F)(F)O2 (single isomer, unassigned) [106 (P1)] | B (RLU 3.5 μM-5.0 μM)
16 | CC(Oc1cc(-n2nc(C(F)(F)F)c3c2C(OC24CC(C(=O)O)(C2)C4)CCC3)ccn1)c1cc2c(cn1)OC(F)(F)O2 (stereo in doubt) [Example 46, 3-[[1-[2-[(1R)-1-(2,2-difluoro-[1,3]dioxolo[4,5-c]pyridine-6-yl)ethoxy]-4-pyridyl]-3-(trifluoromethyl)-4,5,6,7-tetrahydroindazol-7-yl]oxy]bicyclo[1.1.1]pentane-1-carboxylic acid] | B (RLU 3.5 μM-5.0 μM)

Row | SMILES | RLUs: ΔF508-CFTR-HRP trafficking data normalized to the vehicle treated control (0.3% DMSO)
17 | C[C@H](Nc1cc(-n2nc(C(F)(F)F)c3c2[C@@H](OC24CC(c5nc(=O)o[nH]5)(C2)C4)CCC3)ccc1F)c1ccc2c(c1)OC(F)(F)O2 (single isomer, unassigned) [102 (P1)] | C (RLU 0.0 μM-3.5 μM)
18 | C[C@H](Nc1cc(-n2nc(C(F)(F)F)c3c2[C@@H](OC24CC(c5nc(=O)o[nH]5)(C2)C4)CCC3)ccc1F)c1cc2c(cc1F)OC(F)(F)O2 (single isomer, unassigned) [103 (P1)] | B (RLU 3.5 μM-5.0 μM)
19 | C[C@H](Oc1cncc(-n2nc(C(F)(F)F)c3c2[C@@H](O[C@H]2CC[C@H](C(=O)O)CC2)CCC3)c1)c1ccc2c(c1)OC(F)(F)O2 (single isomer, unassigned) [Example 66] | A (RLU 5.0 μM-10 μM)
20 | C[C@H](Nc1cc(-n2nc(C(F)(F)F)c3c2[C@@H](OC24CC(C(=O)O)(C2)C4)CCC3)ccc1F)c1ccc2c(c1)OC(F)(F)O2 (single isomer, unassigned) [Example 95 (P1)] | C (RLU 0.0 μM-3.5 μM)
21 | C[C@H](Oc1cc(-n2nc(C(F)(F)F)c3c2[C@H](OC[C@H]2CC[C@H](C(=O)O)CC2)CCC3)cnc1F)c1ccc2c(c1)OC(F)(F)O2 (single isomer, unassigned) [82 (P2)] | A (RLU 5.0 μM-10 μM)
22 | C[C@H](Oc1cc(-n2nc(C(F)(F)F)c3c2[C@@H](Oc2ccc(C(=O)O)cc2)CCC3)cnc1F)c1ccc2c(c1)OC(F)(F)O2 (single isomer, unassigned) [Example 68] | C (RLU 0.0 μM-3.5 μM)
23 | C[C@H](Oc1cc(-n2nc(C(F)(F)F)c3c2[C@@H](Oc2ccc(C(=O)O)cc2)CCC3)cnn1)c1ccc2c(c1)OC(F)(F)O2 (single isomer, unassigned) [Example 61] | C (RLU 0.0 μM-3.5 μM)
24 | C[C@H](Oc1cc(-n2nc(C(F)(F)F)c3c2N(Cc2ccc(C(=O)O)cc2)CCC3)cnn1)c1ccc2c(c1)OC(F)(F)O2 (single isomer, unassigned) [Example 4] | B (RLU 3.5 μM-5.0 μM)
25 | C[C@@H](Oc1cccc(-n2nc(C(F)(F)F)c3c2C(Oc2ccc(C(=O)O)cc2)CCC3)c1)c1ccc2c(c1)OC(F)(F)O2 (single isomer, unassigned) [Example 28] | A (RLU 5.0 μM-10 μM)
26 | C[C@H](Oc1cc(-n2nc(C(F)(F)F)c3c2[C@@H](OC24CC(C(=O)O)(C2)C4)CCC3)cnn1)c1ccc2c(c1)OC(F)(F)O2 (single isomer, unassigned) [Example 62] | C (RLU 0.0 μM-3.5 μM)
27 | C[C@H](Oc1cncc(-n2nc(C(F)(F)F)c3c2[C@H](C(=O)N2CCC(C(=O)O)CC2)CCC3)c1)c1ccc2c(c1)OC(F)(F)O2 (single isomer, unassigned) [122 (P2)] | B (RLU 3.5 μM-5.0 μM)
28 | C[C@H](Oc1cccc(-c2nn(CC(F)(F)F)c3c2[C@@H](Oc2ccc(C(=O)O)cc2)CCC3)n1)c1ccc2c(c1)OC(F)(F)O2 (single isomer, unassigned) [Example 126] | A (RLU 5.0 μM-10 μM)
29 | C[C@H](Oc1cncc(-n2nc(C(F)(F)F)c3c2[C@@H](Oc2ccc(C(=O)O)cc2)CCC3)c1)c1cc2c(cc1F)OC(F)(F)O2 (single isomer, unassigned) [Example 36e] | A (RLU 5.0 μM-10 μM)
30 | C[C@H](Nc1cc(-c2nn(C3COC3)c3c2[C@@H](Oc2ccc(C(=O)O)cc2)CCC3)ccn1)c1ccc2c(c1)OC(F)(F)O2 (single isomer, unassigned) [Example 127] | A (RLU 5.0 μM-10 μM)
31 | C[C@H](Oc1cc(-n2nc(C(F)(F)F)c3c2[C@H](OC24CC(C(=O)O)(C2)C4)CCC3)cnn1)c1ccc2c(c1)OC(F)(F)O2 (single isomer, unassigned) [Example 63] | B (RLU 3.5 μM-5.0 μM)
32 | C[C@H](Oc1cc(-n2nc(C(F)(F)F)c3c2N(CC24CCC(C(=O)O)(CC2)CC4)CCC3)ccn1)c1ccc2c(c1)OC(F)(F)O2 (single isomer, unassigned) [Example 9] | A (RLU 5.0 μM-10 μM)
